The molecules below were run against Serine/threonine-protein kinase B-raf (Homo sapiens, UniProt P15056, V600E) (assay: B-RAF (V600E) Kinase Assay: In a dilution series 10 uL/well of test substance solution are placed in a multiwell plate. The dilution series is selected so that generally a range of concentrations of 2 uM to 0.119 nM or 0.017 nM is covered. If necessary the initial concentration of 2 uM is changed to 50 uM, 10 uM or 0.4 uM or 0.2857 uM and further dilution is carried out accordingly. The final concentration of DMSO is 5%. 10 uL/well of the B-Raf (V600E)-kinase solution are pipetted in (containing 0.5 ng B-Raf (V600E)-kinase (e.g. from Upstate) in 20 mM Tris-HCl pH 7.5, 0.1 mM EDTA, 0.1 mM EGTA, 0.286 mM sodium orthovanadate, 10% glycerol, 1 mg/mL bovine serum albumin, 1 mM dithiothreitol) and the mixture is incubated for 1 h at RT under with shaking. The kinase reaction is started by the addition of 20 uL/well ATP solution [final concentration: 250 uM ATP, 30 mM Tris-HCl pH 7.5, 0.02% Brij, 0.2 mM sodium orthovanadate, 10 mM magnesium acetate, 0.1 mM EGTA, phosphatase cocktail (Sigma, #P2850, dilution recommended by the manufacturer)] and 10 uL/well MEK1 solution [containing 50 ng biotinylated MEK1 (prepared from purified MEK1 according to standard procedure, e.g. with EZ-Link Sulpho-NHS-LC-Biotin reagent, Pierce, #21335)] and carried out for 60 min at RT with constant shaking. The reaction is stopped by the addition of 12 uL/well of a 100 mM EDTA solution and incubation is continued for a further 5 min. 55 uL/well of the reaction solution are transferred into a streptavidin-coated plate (e.g. Streptawell HighBond, Roche, #11989685001) and shaken gently for 1 h at RT, in order to bind biotinylated MEK1 to the plate. After elimination of the liquid the plate is washed five times with 200 uL/well of 1ÿPBS and 100 uL/well solution of primary antibody plus europium-labelled secondary antibody [Anti Phospho-MEK (Ser217/221), Cell Signaling, #9121 and Eu-N1 labelled goat-anti-rabbit antibody, Perkin Elmer, #AD0105] is added, the primary antibody is diluted 1:2000 and the secondary antibody is diluted to 0.4-0.5 ug/mL in Delfia Assay Buffer (Perkin Elmer, #1244-111). After 1 h shaking at RT the solution is poured away and washed five times with 200 uL/well Delfia Wash Buffer (Perkin Elmer, #4010-0010/#1244-114). After the addition of 200 uL/well Enhancement Solution (Perkin Elmer, #4001-0010/#1244-105) the mixture is shaken for 10 min at RT and then measured in a Wallac Victor using the program "Delfia Time Resolved Fluorescence (Europium)". IC50 values are obtained from these dosage-activity curves using a software program (GraphPadPrizm).).
Serine/threonine-protein kinase B-raf, sequence (P15056 2-766 V600E limits assumed): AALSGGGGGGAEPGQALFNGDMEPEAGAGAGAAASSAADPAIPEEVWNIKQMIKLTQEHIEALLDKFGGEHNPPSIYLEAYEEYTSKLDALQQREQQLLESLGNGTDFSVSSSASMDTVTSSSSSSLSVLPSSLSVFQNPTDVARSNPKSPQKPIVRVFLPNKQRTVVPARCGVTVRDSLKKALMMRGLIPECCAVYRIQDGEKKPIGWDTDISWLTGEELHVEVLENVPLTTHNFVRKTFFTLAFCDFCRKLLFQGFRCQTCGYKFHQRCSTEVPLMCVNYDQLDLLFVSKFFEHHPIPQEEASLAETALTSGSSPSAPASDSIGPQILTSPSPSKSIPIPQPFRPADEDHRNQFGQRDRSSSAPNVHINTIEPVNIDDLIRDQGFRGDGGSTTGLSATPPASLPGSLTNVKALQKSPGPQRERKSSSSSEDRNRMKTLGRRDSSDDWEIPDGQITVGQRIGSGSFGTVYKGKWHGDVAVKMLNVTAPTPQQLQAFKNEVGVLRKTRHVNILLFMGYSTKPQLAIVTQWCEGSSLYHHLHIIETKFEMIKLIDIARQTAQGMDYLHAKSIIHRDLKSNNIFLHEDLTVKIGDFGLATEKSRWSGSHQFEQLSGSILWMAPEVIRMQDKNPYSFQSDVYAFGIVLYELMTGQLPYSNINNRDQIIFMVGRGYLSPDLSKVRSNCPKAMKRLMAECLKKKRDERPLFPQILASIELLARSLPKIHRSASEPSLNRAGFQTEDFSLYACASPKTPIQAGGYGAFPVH

Row | Compound | IC50 [nM]
1 | CCN1CCN(c2cncc(-c3cn(-c4cc(C(=O)Nc5cc(C(C)(C)C)on5)ccc4C)nn3)c2)CC1C (stereo not given) | 11
2 | C=CCN1CCN(c2cncc(-c3cn(-c4cc(NC(=O)c5ccc(C(C)(C)C)s5)ccc4C)nn3)c2)CC1 | 13
3 | Cc1ccc(NC(=O)c2ccc(C(C)(C)C)s2)cc1-n1cc(-c2cncc(N3CCNCC3)c2)nn1 | 4
4 | Cc1ccc(NC(=O)c2ccc(C(C)(C)C)s2)cc1-n1cc(-c2cncc(N3CCN(C)CC3)c2)nn1 | 6
5 | Cc1ccc(NC(=O)c2ccc(C(C)(C)C)s2)cc1-n1cc(-c2cncc(N3CCN(CC(C)C)CC3)c2)nn1 | 18

From ChEMBL document CHEMBL3886580, “B-RAF kinase inhibitors” (2016)
